Structures are written as SMILES.

Data on 2 compounds can be found in patent US10202366B2, “Methods of promoting wound healing using CRM1 inhibitors” (Karyopharm Therapeutics Inc., priority 2013, dated 2019).

The subject of the assay is MM1.S cells. Put plainly: MTT cell proliferation assay. It counts as cell-based. The following applies: Homo sapiens. As to the method:
The MTT cell proliferation assay was used to study the cytotoxic properties of certain compounds. The assay was performed according to the method described by Roche Molecular Biochemicals, with minor modifications. The assay is based on the cleavage of the tetrazolium salt, MTT, in the presence of an electron-coupling reagent. The water-insoluble formazan salt produced must be solubilized in an additional step. Cells grown in a 96-well tissue culture plate were incubated with the MTT solution for approximately 4 hours. After this incubation period, a water-insoluble formazan dye formed. After solubilization, the formazan dye was quantitated using a scanning multi-well spectrophotometer (ELISA reader). […] The cells were seeded at 5,000-10,000 cells in each well of 96-well plate in 100 μL of fresh culture medium and were allowed to attach overnight. The stock solutions of the compounds were diluted in 100 μL cell culture medium to obtain eight concentrations of each test compound, ranging from 1 nM to 30 μM. […] All optical densities were measured at 490 nm using a Vmax Kinetic Microplate Reader (Molecular Devices). In most cases, the assay was performed in duplicate and the results were presented as a mean percent inhibition to the negative control±SE. The following formula was used to calculate the percent of inhibition: Inhibition (%)=(1−(ODo/OD))×100. […]
For orientation: Tetrazolium assays rely on reduction of a dye to a coloured formazan, in cell work by metabolically active cells.

As usually defined, the IC50 is the concentration that inhibits the measured activity by half. High values mean weaker potency in that assay, low ones greater potency in that assay. Take `CC(C)Oc1cc(-c2ncn(/C=C\C(=O)OCc3cncnc3)n2)cc(C(F)(F)F)c1` [Compound 129, Pyrimidin-5-Ylmethyl (Z)-3-(3-(3-Isopropoxy-5-(Trifluoromethyl)Phenyl)-1H-1,2,4-Triazol-1-Yl)Acrylate]: the IC50 turned out to be 20 nM.
For `CC(C)Oc1cc(-c2ncn(/C=C\C(=O)OCc3cnccn3)n2)cc(C(F)(F)F)c1` [Compound 130, Pyrazin-2-Ylmethyl (Z)-3-(3-(3-Isopropdxy-5-(Trifluoromethyl)Phenyl)-1h-1,2,4-Triazol-1-Yl)Acrylate] the value was 4 nM.
